Laboratory results reported in PubChem BioAssay (NCI).
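Test compounds were applied to cells in 96-well plates for 48 hours at 5 doses. The concentration for 50% growth inhibition is given as GI50. TGI: concentration producing complete growth inhibition.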

Tests used:
Test in all cases: inhibition of tumour cell growth, NCI panel, 48 h
[1] = system: OVCAR-5 ovarian
[2] = system: MDA-MB-435
[3] = system: PC-3 prostate
[4] = system: SN12C renal
[5] = system: COLO 205 colon
[6] = system: SNB-75 CNS
[7] = system: CCRF-CEM leukemia
[8] = system: SF-539 CNS
[9] = system: HL-60(TB) leukemia
[10] = system: SK-MEL-28 melanoma

SMILES	TGI [1] [µM]	TGI [2] [µM]	TGI [3] [µM]	TGI [4] [µM]	TGI [5] [µM]	TGI [6] [µM]	TGI [7] [µM]	TGI [8] [µM]	GI50 [9] [µM]	TGI [9] [µM]	TGI [10] [µM]	GI50 [1] [µM]	GI50 [2] [µM]	GI50 [3] [µM]	GI50 [4] [µM]	GI50 [5] [µM]	GI50 [6] [µM]	GI50 [7] [µM]	GI50 [8] [µM]	GI50 [10] [µM]
N#CC(=S)Nc1ccc(Cl)c(Cl)c1	55.9	> 70.5	44.8	> 68.5	49.5	74.7	15.2	48.5	11.8	40.9	> 62.7									
CCOC(=O)/C(=C/c1ccc([N+](=O)[O-])cc1)C(=O)c1ccccc1	6.93	5.37	6.11	3.76	3.89	4.22	9.11	3.58	2.34	5.87	4.73	2.55	2.23	2.46	1.76	1.95	1.72	3.03	1.82	2.1
COc1cc(/C=C2\CN(C)C/C(=C\c3cc(OC)c(OC)c(OC)c3)C2=O)cc(OC)c1OC	1.17	1.02	4.52	0.833	0.461	2.48	1.13	1.33	0.34	1.67	0.429	0.357	0.287	1.32	0.267	0.23	0.667	0.271	0.379	0.2
COc1ccc(N(CC(=O)NCCC[Te]c2ccccc2)C(=O)CCSC2=C(C)C(=O)c3ccccc3C2=O)cc1	1.88	8.11	2.91	3.77	3.64	7.64		3.65	2.97	> 26.1	5.87	0.498	2.67	0.656	0.84	1.99	1.17	0.508	1.88	2.48
CCOC(=O)c1ccc(N(CCOS(C)(=O)=O)CCOS(C)(=O)=O)cc1C	94	> 100	> 100	> 100	> 100	87.1	> 100	> 100	8.08	51.2	> 100	38.1	48.5	30.4	24.7	38.4	34.5	10	23.9	> 100
COc1cc(/C=C/C(=O)c2ccc(Nc3ncnc4ccccc34)cc2)cc(OC)c1	57.3	4.14	31.6	38	39.8	> 100	22.8	18	3.74	30.4	34.4	20.3	1.8	3.36	7.3	9.59	24.1	4.04	4.98	15.4
C=C1C(=O)O[C@@H]2C(=O)[C@@H](C)[C@@H]3C=CC(=O)[C@@]3(C)[C@@H](OC(=O)/C(C)=C\C)[C@H]12	4.69	3.69	6.04	2.85	0.725	19.9	2.24	5.11		0.415	1.01									
O=C(Nc1n[nH]c2nc(-c3ccco3)ccc12)C1CC1	> 25	> 25	> 25	> 25	> 25	> 25	> 25	> 25	> 25	> 25	> 25	> 25	> 25	> 25	> 25	> 25	> 25	> 25	> 25	> 25
COc1cc(C#N)cc(OC)c1OCCOCCOc1c(OC)cc(C#N)cc1OC	> 100	> 100	> 100	> 100	> 100	> 100	> 100	> 100	19	85.7	> 100	> 100	> 100	31.9	> 100	37.2	> 100	38.8	> 100	> 100
CNNCc1ccc(C(=O)NC(C)C)cc1	> 500	> 500	> 500	> 500	> 500	> 500	> 500	> 500		> 500	> 500	> 500					> 500			
Clc1cc(Cl)c(Cl)c(-c2nc(-c3cccnc3)cs2)c1	92.8	29.2	> 100	> 100	41.4	80.6	42	25.4	14.3	> 100	34.8	32.3	3.39	59.4	24.9	13.6	23	8.52	10.7	12.9
O=C(O)c1ccc2c(c1Nc1ccccc1)C(=O)c1ccccc1C2=O	> 100	> 100	> 100	> 100	> 100	> 100	> 100	> 100	79.3	> 100	> 100	> 100	48.1	54.1	50.3	38.9	46.7	40.5	56.2	> 100
O=C1/C(=C\C(Cl)=C/c2ccc([N+](=O)[O-])cc2)SC(=S)N1CCc1ccc(O)cc1	1.53	1.95	0.845	1.38	3.64	2.35	5.67	1.12	0.341	6.63	1.96	0.447	0.552	0.269	0.33	0.882	1.08	0.31	0.328	0.626
Cc1c2c(nn1C(=O)c1nn(-c3ccc(Cl)cc3)cc1O)-c1ccccc1CC2	> 100	> 100	> 100	> 100	4.22	> 100	> 49.1	28.1	0.0507	1.12	> 100	0.0723	0.0412	0.0373	0.0403	0.323	0.0303	0.0477	0.041	0.293
Cc1cccc2c(N=Nc3ccc(S(N)(=O)=O)cc3)c(O)[nH]c12	> 25	> 25	> 25	> 25	> 25	> 25	> 25	> 25	> 25	> 25	> 25	> 25	> 25	> 25	> 25	> 25	> 25	> 25	> 25	> 25
CCOC(=O)c1c(C)nc2ccc(Cl)cc2c1-c1ccccc1	44.6	68.4	65.9	32.7	53.4	64.9	48.9	39.9	14.2	41	52.4	19.8	23.9	20	16.8	17.9	21.8	18.8	19.6	19.6
CCCc1cc2cc(-n3nc(C)c4c3CC(C)(C)CC4=O)cc(NC3CCC(O)CC3)c2c(=O)[nH]1 (configuration not stated)	> 100	> 100	> 100	> 100	1.22	39.6	> 100	> 100	0.13	1.2	> 100	0.626	0.0812	0.423	0.0683	0.0775	1.73	0.278	0.782	0.232
